Test systems include SNB-75 CNS; MALME-3M melanoma; UACC-257 melanoma; KM12 colon; T-47D breast; SW-620 colon; SNB-19 CNS; NCI-H226 lung; MCF7 breast; SF-295 CNS.
Common to all, as to experiment: NCI tumour cell line growth inhibition, 48 h

Structures are written as SMILES.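 Growth conditions: 96-well plates. Treatment: test compound, 48 hours, 5 concentrations. Analysis: linear interpolation between bracketing concentrations; unreached endpoints set to highest concentration. Here, GI50 denotes the concentration required for 50% inhibition of growth. At the TGI there is no net growth.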 Where a SMILES comes first, the peptide text is derived from it. [ ]: non-standard residue; d: D form. The star is where a group is joined. Cbz = O=C(OCc1ccccc1)*; Boc = CC(C)(C)OC(=O)*; Aib = CC(C)(N)C(=O)O; OBn = c1ccc(CO*)cc1; OtBu = CC(C)(C)O*; βAla = NCCC(=O)O

On to `NC(N)=N/N=C/c1nc2sccn2c1[N+](=O)[O-]`, for which the TGI in the experiment with SNB-75 CNS was 39.5 µM; with MALME-3M melanoma it was 26.3 µM; with UACC-257 melanoma it was 31.7 µM; in the experiment on KM12 colon, 47.6 µM; with T-47D breast, 65.1 µM; in the experiment with SW-620 colon it was greater than 100 µM. In addition, the TGI with SNB-19 CNS was greater than 100 µM; with NCI-H226 lung it was greater than 100 µM; in the experiment with MCF7 breast, 36.4 µM; in the experiment with SF-295 CNS, greater than 100 µM.
As to `C/C=C/[C@H]1O[C@@](OC)([C@@H](C)[C@H](O)[C@H](C)[C@H]2OC(=O)/C(OC)=C/C(C)=C/[C@@H](C)[C@@H](O)[C@@H](C)[C@@H](O)[C@H](C)C/C(C)=C/C=C/[C@@H]2OC)CC(OC2CC(O)C(OC(N)=O)C(C)O2)[C@@H]1C` (stereo partly specified), the TGI was 19.5 µM with SNB-75 CNS; 0.305 µM with MALME-3M melanoma; less than 0.0143 µM in the experiment with UACC-257 melanoma; 12.7 µM with KM12 colon; 15.1 µM in the experiment on T-47D breast; 4.8 µM with SW-620 colon. For the same molecule, the TGI in the experiment with SNB-19 CNS was 18.1 µM; in the experiment on NCI-H226 lung it was 14.1 µM; in the experiment with MCF7 breast, 16 µM; with SF-295 CNS it was less than 0.01 µM.
Take `O=C(Nc1cccc(-c2cn3ccccc3n2)c1)c1ccncc1`: the TGI is greater than 100 µM in the experiment on SNB-75 CNS; greater than 100 µM with MALME-3M melanoma; 73.5 µM with UACC-257 melanoma; greater than 100 µM in the experiment with KM12 colon; 79.6 µM in the experiment with T-47D breast; greater than 100 µM in the experiment with SW-620 colon. For the same molecule, the TGI in the experiment on SNB-19 CNS, in the experiment on NCI-H226 lung, with MCF7 breast and in the experiment with SF-295 CNS was greater than 100 µM each time.
Turning to `CCCCN(c1ccccc1)c1ncnc2c1cnn2C`, the TGI is 55.9 µM in the experiment with SNB-75 CNS; 77.7 µM with MALME-3M melanoma; 95.8 µM in the experiment with UACC-257 melanoma; greater than 100 µM in the experiment on KM12 colon; 99.1 µM in the experiment with T-47D breast; greater than 100 µM in the experiment on SW-620 colon. In addition, the TGI in the experiment with SNB-19 CNS, in the experiment on NCI-H226 lung, in the experiment on MCF7 breast and with SF-295 CNS was greater than 100 µM in each case.
In the case of `CN1C2CC(=O)CC1[C@@H]1OC(c3ccccc3)O[C@H]21` (stereo partly specified), the TGI with SNB-75 CNS, with MALME-3M melanoma, in the experiment with UACC-257 melanoma, in the experiment on KM12 colon, in the experiment with T-47D breast and in the experiment with SW-620 colon was greater than 100 µM in each case. The TGI with SNB-19 CNS, in the experiment with NCI-H226 lung, in the experiment with MCF7 breast and in the experiment with SF-295 CNS was greater than 100 µM throughout.
On to `Nc1nc2c(ncn2C2C=CC(CO)O2)c(=O)[nH]1` (stereo unspecified), for which the TGI with SNB-75 CNS, in the experiment on MALME-3M melanoma, in the experiment on UACC-257 melanoma, in the experiment with KM12 colon, in the experiment on T-47D breast and in the experiment with SW-620 colon was greater than 100 µM throughout. For the same molecule, the TGI with SNB-19 CNS, with NCI-H226 lung, in the experiment with MCF7 breast and in the experiment on SF-295 CNS was greater than 100 µM each time.
On to `Cc1ccc2c(c1)OC1Nc3ccccc3C1=C2O` (stereo unspecified), for which the TGI with SNB-75 CNS was greater than 100 µM; in the experiment with MALME-3M melanoma it was greater than 100 µM; in the experiment on UACC-257 melanoma it was 69.3 µM; with KM12 colon, greater than 100 µM; in the experiment with T-47D breast, 85 µM; with SW-620 colon, greater than 100 µM. The TGI with SNB-19 CNS was greater than 100 µM; in the experiment on NCI-H226 lung it was 89.1 µM; in the experiment with MCF7 breast, 45.9 µM; in the experiment on SF-295 CNS, 60 µM.
With `N#CCc1nc(C#N)c(N)o1`, the GI50 in the experiment with SNB-75 CNS and in the experiment with SNB-19 CNS was greater than 100 µM throughout. In addition, the TGI in the experiment with SNB-75 CNS, with MALME-3M melanoma, with UACC-257 melanoma, with KM12 colon, in the experiment on T-47D breast and in the experiment with SW-620 colon was greater than 100 µM in each case. For the same molecule, the TGI in the experiment on SNB-19 CNS, with NCI-H226 lung, with MCF7 breast and in the experiment on SF-295 CNS was greater than 100 µM each time.
Take `CCN(CC)CCCNc1ccc2nnn3c4ccc(O)cc4c(=O)c1c23`: the TGI came to 20.2 µM with SNB-75 CNS; 26.4 µM in the experiment with MALME-3M melanoma; 32.6 µM in the experiment with UACC-257 melanoma; 20 µM in the experiment with KM12 colon; 39.9 µM with T-47D breast; 18.4 µM with SW-620 colon. The TGI in the experiment on SNB-19 CNS was determined as 22.8 µM; with NCI-H226 lung it was 22.4 µM; in the experiment on MCF7 breast it was 34 µM; in the experiment with SF-295 CNS, 22.8 µM.
Consider `COC(=O)C1(C(=O)OC)N=C(C)OC1C(C)C` (stereo unspecified), for which the TGI in the experiment on SNB-75 CNS, in the experiment on UACC-257 melanoma, in the experiment with KM12 colon, with T-47D breast, in the experiment on SW-620 colon and in the experiment on SNB-19 CNS was greater than 100 µM in each case. Besides, the TGI in the experiment on NCI-H226 lung, in the experiment on MCF7 breast and in the experiment with SF-295 CNS was greater than 100 µM throughout.
For the molecule `O=C(NNC(=S)Nc1ccccc1)c1csc(NC(=S)NC2CCCCC2)n1`, the TGI was greater than 100 µM in the experiment on SNB-75 CNS; greater than 100 µM with MALME-3M melanoma; 56.8 µM with UACC-257 melanoma; greater than 100 µM in the experiment with KM12 colon; greater than 100 µM with T-47D breast; greater than 100 µM in the experiment on SW-620 colon. The TGI with MCF7 breast and in the experiment on SF-295 CNS was greater than 100 µM in each case.
`COC(OC)C(O)C1OC=CC1n1cnc2c(N)ncnc21` (stereo unspecified): the TGI in the experiment on SNB-75 CNS, in the experiment on UACC-257 melanoma, in the experiment on KM12 colon, in the experiment with T-47D breast, in the experiment on SW-620 colon and with NCI-H226 lung was greater than 100 µM in each case. Further, the TGI with MCF7 breast and in the experiment on SF-295 CNS was greater than 100 µM throughout.
Turning to `CC(C)(C)OC(=O)CC(NC(=O)OC(C)(C)C)C(=O)NC(CCCCNC(=O)OCc1ccccc1)C(=O)NC(C)(C)C(=O)NCCC(=O)OCc1ccccc1` (stereo unspecified) (Boc-D(OtBu)K(Cbz)[Aib][βAla]-OBn; configuration not given here), the TGI with SNB-75 CNS, with MALME-3M melanoma, in the experiment on KM12 colon, with T-47D breast, in the experiment on SW-620 colon and in the experiment on SNB-19 CNS was greater than 100 µM throughout. For the same molecule, the TGI in the experiment with NCI-H226 lung, with MCF7 breast and in the experiment on SF-295 CNS was greater than 100 µM each time.

The values are drawn from PubChem BioAssay (NCI).
